Measured values published in ChEMBL document CHEMBL4804284.

Columns and labels:
Design in all cases: scale not given: the % may be the effect or the level left
[1] = tested on: Mast/stem cell growth factor receptor Kit (Homo sapiens), P10721 [V559D,T670I]; test: Inhibition of DNA-tagged human KIT V559D/T670I double mutant assessed as percent of control at 50000 nM by qPCR analysis relative to control
[2] = molecular target: BDNF/NT-3 growth factors receptor (Homo sapiens) (UniProt Q16620); test: Inhibition of DNA-tagged human TRKB assessed as percent of control at 50000 nM by qPCR analysis relative to control
[3] = tested on: Hepatocyte growth factor receptor (Homo sapiens), P08581 [Y1235D]; test: Inhibition of DNA-tagged human MET Y1235D mutant assessed as percent of control at 50000 nM by qPCR analysis relative to control
[4] = molecular target: Mitogen-activated protein kinase kinase kinase 3 (Homo sapiens) (UniProt Q99759); test: Inhibition of DNA-tagged human MAP3K3 assessed as percent of control at 50000 nM by qPCR analysis relative to control
[5] = molecular target: cAMP-dependent protein kinase catalytic subunit alpha (Homo sapiens) (UniProt P17612); test: Inhibition of DNA-tagged human PKAC-alpha assessed as percent of control at 50000 nM by qPCR analysis relative to control
[6] = molecular target: Death-associated protein kinase 1 (Homo sapiens) (UniProt P53355); test: Inhibition of DNA-tagged human DAPK1 assessed as percent of control at 50000 nM by qPCR analysis relative to control
Sequence of Death-associated protein kinase 1 (Homo sapiens) (P53355 whole entry, looked up): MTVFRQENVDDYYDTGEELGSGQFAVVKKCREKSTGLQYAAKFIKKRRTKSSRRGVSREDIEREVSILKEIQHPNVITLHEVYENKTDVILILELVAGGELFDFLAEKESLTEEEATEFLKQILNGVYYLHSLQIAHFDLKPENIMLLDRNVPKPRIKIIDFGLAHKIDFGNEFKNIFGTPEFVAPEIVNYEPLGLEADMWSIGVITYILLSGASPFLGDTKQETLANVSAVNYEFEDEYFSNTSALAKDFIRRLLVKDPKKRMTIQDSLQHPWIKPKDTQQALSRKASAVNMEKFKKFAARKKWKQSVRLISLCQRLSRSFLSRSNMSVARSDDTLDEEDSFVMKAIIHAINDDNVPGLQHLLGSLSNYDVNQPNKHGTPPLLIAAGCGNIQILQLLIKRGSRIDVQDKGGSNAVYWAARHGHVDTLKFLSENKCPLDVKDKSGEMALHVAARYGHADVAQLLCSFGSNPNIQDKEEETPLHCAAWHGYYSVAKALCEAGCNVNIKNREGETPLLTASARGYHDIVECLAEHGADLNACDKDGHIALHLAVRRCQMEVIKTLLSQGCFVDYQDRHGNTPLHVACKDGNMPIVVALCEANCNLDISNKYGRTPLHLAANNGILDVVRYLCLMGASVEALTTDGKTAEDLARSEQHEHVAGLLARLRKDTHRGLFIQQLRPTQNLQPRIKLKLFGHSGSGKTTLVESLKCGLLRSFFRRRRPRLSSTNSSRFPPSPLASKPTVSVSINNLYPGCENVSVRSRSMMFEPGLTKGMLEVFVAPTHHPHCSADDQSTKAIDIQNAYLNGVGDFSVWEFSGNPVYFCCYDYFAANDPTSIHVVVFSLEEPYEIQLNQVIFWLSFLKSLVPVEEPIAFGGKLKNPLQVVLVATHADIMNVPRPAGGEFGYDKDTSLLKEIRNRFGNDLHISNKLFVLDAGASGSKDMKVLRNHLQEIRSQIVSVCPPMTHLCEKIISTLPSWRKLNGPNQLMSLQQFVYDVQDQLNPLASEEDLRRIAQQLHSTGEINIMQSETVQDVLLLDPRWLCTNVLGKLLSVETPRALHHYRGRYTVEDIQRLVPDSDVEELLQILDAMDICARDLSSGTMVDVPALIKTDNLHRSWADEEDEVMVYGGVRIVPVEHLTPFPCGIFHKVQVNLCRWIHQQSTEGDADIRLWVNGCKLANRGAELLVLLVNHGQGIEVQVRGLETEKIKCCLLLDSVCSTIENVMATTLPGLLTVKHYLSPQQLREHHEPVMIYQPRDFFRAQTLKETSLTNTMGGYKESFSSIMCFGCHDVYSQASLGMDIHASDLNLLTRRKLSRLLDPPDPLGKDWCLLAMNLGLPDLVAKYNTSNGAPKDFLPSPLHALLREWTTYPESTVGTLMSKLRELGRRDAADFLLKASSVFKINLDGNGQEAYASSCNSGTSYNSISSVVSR

[7] = molecular target: Mitogen-activated protein kinase kinase kinase 9 (Homo sapiens) (UniProt P80192); test: Inhibition of DNA-tagged human MLK1 assessed as percent of control at 50000 nM by qPCR analysis relative to control
[8] = molecular target: Dual specificity tyrosine-phosphorylation-regulated kinase 1B (Homo sapiens) (UniProt Q9Y463); test: Inhibition of DNA-tagged human DYRK1B assessed as percent of control at 50000 nM by qPCR analysis relative to control
[9] = molecular target: Serine/threonine-protein kinase N1 (Homo sapiens) (UniProt Q16512); test: Inhibition of DNA-tagged human PKN1 assessed as percent of control at 50000 nM by qPCR analysis relative to control
[10] = tested on: Receptor-type tyrosine-protein kinase FLT3 (Homo sapiens), P36888 [D835H]; test: Inhibition of DNA-tagged human FLT3 D835H mutant assessed as percent of control at 50000 nM by qPCR analysis relative to control
[11] = molecular target: Serine/threonine-protein kinase pim-2 (Homo sapiens) (UniProt Q9P1W9); test: Inhibition of DNA-tagged human PIM2 assessed as percent of control at 50000 nM by qPCR analysis relative to control
[12] = molecular target: Inhibitor of nuclear factor kappa-B kinase subunit epsilon (Homo sapiens) (UniProt Q14164); test: Inhibition of DNA-tagged human IKK-epsilon assessed as percent of control at 50000 nM by qPCR analysis relative to control
[13] = molecular target: Dual specificity mitogen-activated protein kinase kinase 4 (Homo sapiens) (UniProt P45985); test: Inhibition of DNA-tagged human MEK4 assessed as percent of control at 50000 nM by qPCR analysis relative to control
Sequence of Dual specificity mitogen-activated protein kinase kinase 4 (Homo sapiens) (P45985 whole entry): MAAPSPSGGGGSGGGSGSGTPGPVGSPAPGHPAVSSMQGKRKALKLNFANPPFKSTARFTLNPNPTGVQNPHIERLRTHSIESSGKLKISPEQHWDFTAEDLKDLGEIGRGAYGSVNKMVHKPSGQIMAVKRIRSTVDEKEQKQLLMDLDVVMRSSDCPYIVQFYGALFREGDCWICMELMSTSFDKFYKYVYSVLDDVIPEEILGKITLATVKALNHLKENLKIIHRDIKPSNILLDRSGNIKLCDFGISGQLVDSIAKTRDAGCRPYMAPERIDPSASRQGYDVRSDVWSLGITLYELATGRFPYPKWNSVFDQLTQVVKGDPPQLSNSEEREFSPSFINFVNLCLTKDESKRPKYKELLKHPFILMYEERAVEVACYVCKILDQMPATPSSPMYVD

[14] = molecular target: Ribosomal protein S6 kinase beta-1 (Homo sapiens) (UniProt P23443); test: Inhibition of DNA-tagged human S6K1 assessed as percent of control at 50000 nM by qPCR analysis relative to control
[15] = molecular target: Tyrosine-protein kinase CSK (Homo sapiens) (UniProt P41240); test: Inhibition of DNA-tagged human CSK assessed as percent of control at 50000 nM by qPCR analysis relative to control
Sequence of Tyrosine-protein kinase CSK (Homo sapiens) (P41240 2-450 limits assumed): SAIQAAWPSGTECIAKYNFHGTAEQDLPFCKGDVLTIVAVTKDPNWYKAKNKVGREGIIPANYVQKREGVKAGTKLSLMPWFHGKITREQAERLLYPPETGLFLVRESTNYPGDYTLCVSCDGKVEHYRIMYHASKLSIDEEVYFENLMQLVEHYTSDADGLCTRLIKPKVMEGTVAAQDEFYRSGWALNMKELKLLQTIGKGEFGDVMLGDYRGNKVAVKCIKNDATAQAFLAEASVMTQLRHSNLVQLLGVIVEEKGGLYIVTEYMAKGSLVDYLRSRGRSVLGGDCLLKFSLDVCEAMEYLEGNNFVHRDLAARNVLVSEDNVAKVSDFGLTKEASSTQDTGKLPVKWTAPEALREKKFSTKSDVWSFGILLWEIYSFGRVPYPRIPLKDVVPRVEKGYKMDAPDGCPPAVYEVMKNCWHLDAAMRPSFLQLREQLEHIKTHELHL

[16] = molecular target: Proto-oncogene tyrosine-protein kinase ROS (Homo sapiens) (UniProt P08922); test: Inhibition of DNA-tagged human ROS1 assessed as percent of control at 50000 nM by qPCR analysis relative to control
[17] = molecular target: Serine/threonine-protein kinase PknB (Mycobacterium tuberculosis) (UniProt P9WI81); test: Inhibition of DNA-tagged Mycobacterium tuberculosis PKNB assessed as percent of control at 50000 nM by qPCR analysis relative to control
[18] = tested on: Mast/stem cell growth factor receptor Kit (Homo sapiens), P10721 [V559D,V654A]; test: Inhibition of DNA-tagged human KIT V559D/V654A double mutant assessed as percent of control at 50000 nM by qPCR analysis relative to control
Sequence of Mast/stem cell growth factor receptor Kit (Homo sapiens), P10721 [V559D,V654A] (P10721 whole entry V559D/V654A): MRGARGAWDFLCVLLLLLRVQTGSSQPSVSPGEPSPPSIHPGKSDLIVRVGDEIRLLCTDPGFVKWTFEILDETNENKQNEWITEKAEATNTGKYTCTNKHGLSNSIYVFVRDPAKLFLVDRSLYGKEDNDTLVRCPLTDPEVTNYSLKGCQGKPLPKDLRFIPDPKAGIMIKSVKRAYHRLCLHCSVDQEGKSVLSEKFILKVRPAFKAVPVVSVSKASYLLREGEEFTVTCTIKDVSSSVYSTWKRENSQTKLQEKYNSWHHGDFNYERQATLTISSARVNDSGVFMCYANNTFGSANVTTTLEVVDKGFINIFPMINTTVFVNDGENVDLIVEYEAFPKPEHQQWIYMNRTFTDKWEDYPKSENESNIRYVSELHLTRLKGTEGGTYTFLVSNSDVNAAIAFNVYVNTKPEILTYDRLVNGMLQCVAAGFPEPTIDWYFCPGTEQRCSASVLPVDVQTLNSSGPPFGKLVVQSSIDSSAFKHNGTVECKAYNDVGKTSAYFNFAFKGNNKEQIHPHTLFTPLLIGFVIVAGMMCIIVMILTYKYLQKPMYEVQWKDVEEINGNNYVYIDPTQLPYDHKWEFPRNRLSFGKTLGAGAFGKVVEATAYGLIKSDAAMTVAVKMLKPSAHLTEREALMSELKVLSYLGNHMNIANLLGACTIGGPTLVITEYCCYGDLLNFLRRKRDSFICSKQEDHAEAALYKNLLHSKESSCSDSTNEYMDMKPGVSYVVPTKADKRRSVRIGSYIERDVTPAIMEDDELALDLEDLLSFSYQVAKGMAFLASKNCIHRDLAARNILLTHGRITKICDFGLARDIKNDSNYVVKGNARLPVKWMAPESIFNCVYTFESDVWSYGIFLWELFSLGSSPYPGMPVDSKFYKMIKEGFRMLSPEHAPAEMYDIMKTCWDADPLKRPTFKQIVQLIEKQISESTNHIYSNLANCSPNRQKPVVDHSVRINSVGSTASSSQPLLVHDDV

[19] = molecular target: Mitogen-activated protein kinase kinase kinase 13 (Homo sapiens) (UniProt O43283); test: Inhibition of DNA-tagged human LZK assessed as percent of control at 50000 nM by qPCR analysis relative to control
[20] = molecular target: Activin receptor type-1 (Homo sapiens) (UniProt Q04771); test: Inhibition of DNA-tagged human ACVR1 assessed as percent of control at 50000 nM by qPCR analysis relative to control
Sequence of Activin receptor type-1 (Homo sapiens) (Q04771 whole entry): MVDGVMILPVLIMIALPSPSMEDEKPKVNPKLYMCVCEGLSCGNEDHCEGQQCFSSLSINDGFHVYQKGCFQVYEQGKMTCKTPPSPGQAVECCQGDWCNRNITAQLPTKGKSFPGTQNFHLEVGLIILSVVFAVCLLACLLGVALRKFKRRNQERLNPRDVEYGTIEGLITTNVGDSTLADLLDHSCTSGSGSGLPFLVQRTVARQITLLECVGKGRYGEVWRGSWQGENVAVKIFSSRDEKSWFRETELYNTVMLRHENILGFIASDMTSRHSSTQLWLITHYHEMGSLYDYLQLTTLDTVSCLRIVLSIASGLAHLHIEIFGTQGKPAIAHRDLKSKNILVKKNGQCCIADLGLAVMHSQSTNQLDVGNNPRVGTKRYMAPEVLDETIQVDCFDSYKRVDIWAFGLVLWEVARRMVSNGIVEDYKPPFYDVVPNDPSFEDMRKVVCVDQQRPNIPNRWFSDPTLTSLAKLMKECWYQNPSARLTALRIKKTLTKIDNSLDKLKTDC

[21] = tested on: Mast/stem cell growth factor receptor Kit (Homo sapiens), P10721 [V559D]; test: Inhibition of DNA-tagged human KIT V559D mutant assessed as percent of control at 50000 nM by qPCR analysis relative to control
Sequence of Mast/stem cell growth factor receptor Kit (Homo sapiens), P10721 [V559D] (P10721 whole entry V559D): as the sequence (P10721 whole entry V559D/V654A) above, with A654V counted along it

[22] = molecular target: Calcium/calmodulin-dependent protein kinase type 1D (Homo sapiens) (UniProt Q8IU85); test: Inhibition of DNA-tagged human CAMK1D assessed as percent of control at 50000 nM by qPCR analysis relative to control
[23] = molecular target: Tyrosine-protein kinase Srms (Homo sapiens) (UniProt Q9H3Y6); test: Inhibition of DNA-tagged human SRMS assessed as percent of control at 50000 nM by qPCR analysis relative to control
[24] = molecular target: Cyclin-dependent kinase 18 (Homo sapiens) (UniProt Q07002); test: Inhibition of DNA-tagged human PCTK3 assessed as percent of control at 50000 nM by qPCR analysis relative to control
Sequence of Cyclin-dependent kinase 18 (Homo sapiens) (Q07002 whole entry): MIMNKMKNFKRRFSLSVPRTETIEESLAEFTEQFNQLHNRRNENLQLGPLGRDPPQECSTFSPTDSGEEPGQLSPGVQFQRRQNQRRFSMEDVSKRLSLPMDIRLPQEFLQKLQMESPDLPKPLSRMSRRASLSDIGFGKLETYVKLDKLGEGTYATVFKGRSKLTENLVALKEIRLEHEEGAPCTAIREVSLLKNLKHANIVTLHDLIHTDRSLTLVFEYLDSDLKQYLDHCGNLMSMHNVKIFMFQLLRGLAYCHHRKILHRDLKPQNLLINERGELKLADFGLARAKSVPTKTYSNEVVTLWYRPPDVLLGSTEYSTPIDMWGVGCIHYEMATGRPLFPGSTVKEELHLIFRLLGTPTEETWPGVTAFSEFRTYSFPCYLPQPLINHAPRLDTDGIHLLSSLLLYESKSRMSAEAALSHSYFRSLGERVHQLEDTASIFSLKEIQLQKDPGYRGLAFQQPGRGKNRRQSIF

[25] = tested on: Tyrosine-protein kinase ABL1 (Homo sapiens), P00519 [F317I]; test: Inhibition of DNA-tagged non-phosphorylated human ABL1 F317I mutant assessed as percent of control at 50000 nM by qPCR analysis relative to control
[26] = molecular target: MAP kinase-activated protein kinase 5 (Homo sapiens) (UniProt Q8IW41); test: Inhibition of DNA-tagged human MAPKAPK5 assessed as percent of control at 50000 nM by qPCR analysis relative to control
[27] = molecular target: Myosin light chain kinase family member 4 (Homo sapiens) (UniProt Q86YV6); test: Inhibition of DNA-tagged human MYLK4 assessed as percent of control at 50000 nM by qPCR analysis relative to control
[28] = tested on: Tyrosine-protein kinase ABL1 (Homo sapiens), P00519 [UNDEFINED MUTATION]; test: Inhibition of DNA-tagged non-phosphorylated human ABL1 […] mutant assessed as percent of control at 50000 nM by qPCR analysis relative to control
[29] = molecular target: Serine/threonine-protein kinase Chk2 (Homo sapiens) (UniProt O96017); test: Inhibition of DNA-tagged human CHEK2 assessed as percent of control at 50000 nM by qPCR analysis relative to control
Sequence of Serine/threonine-protein kinase Chk2 (Homo sapiens) (O96017 whole entry): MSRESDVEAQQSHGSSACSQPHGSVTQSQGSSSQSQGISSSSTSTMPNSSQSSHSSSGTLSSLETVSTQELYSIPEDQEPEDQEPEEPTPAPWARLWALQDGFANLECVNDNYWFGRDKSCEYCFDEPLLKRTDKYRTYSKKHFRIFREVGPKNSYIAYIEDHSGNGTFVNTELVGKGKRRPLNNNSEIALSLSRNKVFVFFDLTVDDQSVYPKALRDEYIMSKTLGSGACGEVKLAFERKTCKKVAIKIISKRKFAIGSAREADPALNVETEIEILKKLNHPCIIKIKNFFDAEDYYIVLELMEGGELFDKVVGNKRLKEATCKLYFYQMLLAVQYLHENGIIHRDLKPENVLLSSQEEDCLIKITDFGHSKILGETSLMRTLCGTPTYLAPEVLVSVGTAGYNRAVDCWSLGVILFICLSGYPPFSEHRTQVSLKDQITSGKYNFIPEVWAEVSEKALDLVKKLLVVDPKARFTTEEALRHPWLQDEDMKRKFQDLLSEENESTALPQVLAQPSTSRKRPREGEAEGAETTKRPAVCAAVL

Sequence of Mast/stem cell growth factor receptor Kit (Homo sapiens), P10721 [V559D,T670I] (P10721 whole entry V559D/T670I): as the sequence (P10721 whole entry V559D/V654A) above, with A654V, T670I counted along it

CN1C(=O)/C(=C2/C(=O)Nc3ccccc32)c2ccccc21
Activity [1]: 93% | Activity [2]: 88% | Activity [3]: 99% | Activity [4]: 94% | Activity [5]: 93% | Activity [6]: 86% | Activity [7]: 100% | Activity [8]: 92% | Activity [9]: 100% | Activity [10]: 100% | Activity [11]: 100% | Activity [12]: 100% | Activity [13]: 100% | Activity [14]: 85% | Activity [15]: 100% | Activity [16]: 81% | Activity [17]: 100% | Activity [18]: 100% | Activity [19]: 63% | Activity [20]: 99% | Activity [21]: 91% | Activity [22]: 100% | Activity [23]: 88% | Activity [24]: 84% | Activity [25]: 100% | Activity [26]: 100% | Activity [27]: 87% | Activity [28]: 100% | Activity [29]: 100%
